Source: ChEMBL document CHEMBL1201862, “PubChem BioAssay data set” (2004)
Activity calls are given as the source filed them.

Legend:
Prothrombin = Prothrombin (Homo sapiens, UniProt P00734); test: Thrombin 1536 HTS Dose Response Confirmation. [Related pubchem assays: 1046 (Thrombin 1536 HTS; hits were confirmed in this assay)]; assay type: functional
Estrogen receptor beta = Estrogen receptor beta (Homo sapiens, UniProt Q92731);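 further: recombinant ER-beta bound to coactivator SRC1 peptide in presence of estradiol agonist; inhibitors block coactivator peptide binding and lower the FRET signal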
[1] = target: T1, Oxysterols receptor LXR-beta (Homo sapiens, UniProt P55055); assay type: functional, cell-based
T1 sequence (P55055 whole entry): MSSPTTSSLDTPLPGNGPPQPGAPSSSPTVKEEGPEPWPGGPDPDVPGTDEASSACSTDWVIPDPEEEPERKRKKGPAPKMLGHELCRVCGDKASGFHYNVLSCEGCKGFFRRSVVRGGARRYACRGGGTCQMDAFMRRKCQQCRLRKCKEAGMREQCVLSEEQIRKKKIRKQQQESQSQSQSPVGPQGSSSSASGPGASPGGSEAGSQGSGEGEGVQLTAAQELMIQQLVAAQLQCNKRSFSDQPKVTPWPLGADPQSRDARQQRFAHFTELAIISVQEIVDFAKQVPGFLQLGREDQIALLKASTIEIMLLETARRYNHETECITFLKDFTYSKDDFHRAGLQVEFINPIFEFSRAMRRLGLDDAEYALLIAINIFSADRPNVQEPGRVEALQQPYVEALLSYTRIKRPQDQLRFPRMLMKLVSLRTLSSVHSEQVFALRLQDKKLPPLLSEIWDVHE

[2] = cytotoxicity toward NIH3T3 fibroblasts, dose response, counter-screen, cell-based, ATP luminescence, mouse fibroblasts (AID 2010); assay type: functional;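 further: cells exposed to compound for about 90 hours before reading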
[3] = inhibitors of intracellular T. cruzi replication, confirmation, NIH3T3 host cells, beta-gal luminescence (AID 2044); assay type: functional, cell-based;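 further: intracellular parasites grown in NIH/3T3 mouse fibroblasts as host cells; luminescent beta-galactosidase reporter signal from transgenic T. cruzi replicating inside host cells; inhibitors lower the luminescence signal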
cells [4] = test: cells
[5] = HEp-2 cell cytotoxicity, dose response, cytotoxicity control for RSV inhibitor project, HTS (AID 2410); assay type: functional; settings: human respiratory syncytial virus
Aminopeptidase N = target: T2, Aminopeptidase N (Plasmodium falciparum FcB1/Columbia, UniProt O96935); test: P. falciparum M1AAP inhibitors, biochemical, fluorogenic H-Leu-NHMec substrate, 1536-well (AID 1445); parameters: species or system Plasmodium falciparum 3D7, 3D7
T2 sequence (O96935 whole entry): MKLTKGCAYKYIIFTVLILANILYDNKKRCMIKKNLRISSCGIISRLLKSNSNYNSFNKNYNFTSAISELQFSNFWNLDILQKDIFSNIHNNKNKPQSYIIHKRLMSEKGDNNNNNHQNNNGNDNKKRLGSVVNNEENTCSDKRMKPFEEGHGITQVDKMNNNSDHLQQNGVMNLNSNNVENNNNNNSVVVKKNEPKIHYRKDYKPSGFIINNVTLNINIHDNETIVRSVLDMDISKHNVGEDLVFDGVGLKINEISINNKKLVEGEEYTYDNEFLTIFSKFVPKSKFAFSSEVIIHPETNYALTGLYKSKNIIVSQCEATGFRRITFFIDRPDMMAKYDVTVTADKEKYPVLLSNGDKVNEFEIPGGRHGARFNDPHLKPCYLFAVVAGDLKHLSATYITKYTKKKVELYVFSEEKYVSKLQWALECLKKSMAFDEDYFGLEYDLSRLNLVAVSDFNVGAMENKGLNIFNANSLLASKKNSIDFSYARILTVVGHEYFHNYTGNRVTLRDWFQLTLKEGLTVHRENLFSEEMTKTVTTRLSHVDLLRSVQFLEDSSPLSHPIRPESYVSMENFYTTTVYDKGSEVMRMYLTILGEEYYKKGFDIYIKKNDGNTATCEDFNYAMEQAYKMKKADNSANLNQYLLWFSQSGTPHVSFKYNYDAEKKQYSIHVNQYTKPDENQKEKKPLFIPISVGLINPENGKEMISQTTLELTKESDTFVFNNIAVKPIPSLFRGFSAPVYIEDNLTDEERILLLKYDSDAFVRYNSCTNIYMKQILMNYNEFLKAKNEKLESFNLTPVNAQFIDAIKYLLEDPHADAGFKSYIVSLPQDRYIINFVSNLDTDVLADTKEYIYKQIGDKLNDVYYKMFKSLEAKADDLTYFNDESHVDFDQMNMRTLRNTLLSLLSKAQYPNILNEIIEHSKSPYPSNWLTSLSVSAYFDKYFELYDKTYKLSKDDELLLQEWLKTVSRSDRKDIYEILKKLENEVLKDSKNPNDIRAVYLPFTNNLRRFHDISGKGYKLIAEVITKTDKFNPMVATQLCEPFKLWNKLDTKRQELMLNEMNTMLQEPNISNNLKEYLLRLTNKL

Albumin = Albumin (Bos taurus, UniProt P02769); test: Counterscreen for inhibitors of T-cell receptor (TCR)-CD3 interaction: Fluorescence-based biochemical high throughput dose response assay to identify inhibitors of T-cell receptor (TCR)-CD3 interaction using a TAMRA-labeled BSA probe.; assay type: functional
cells [6] = assay type: functional, cell-based; settings: HEK-CNG
Galanin receptor type 3 = target: T3, Galanin receptor type 3 (Homo sapiens, UniProt O60755); test: Fluorescence-based cell-based primary high throughput dose response assay to identify antagonists of the Galanin Receptor 3 (GalR3).; assay type: functional
T3 sequence (O60755 whole entry): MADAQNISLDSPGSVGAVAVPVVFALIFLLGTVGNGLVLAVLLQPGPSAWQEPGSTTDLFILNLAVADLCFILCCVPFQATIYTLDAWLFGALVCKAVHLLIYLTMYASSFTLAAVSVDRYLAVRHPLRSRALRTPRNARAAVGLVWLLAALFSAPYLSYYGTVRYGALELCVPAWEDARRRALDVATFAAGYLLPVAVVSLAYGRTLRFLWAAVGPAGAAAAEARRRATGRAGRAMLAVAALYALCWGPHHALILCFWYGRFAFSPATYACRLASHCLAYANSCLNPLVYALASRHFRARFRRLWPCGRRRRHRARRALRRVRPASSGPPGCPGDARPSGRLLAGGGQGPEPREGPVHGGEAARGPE

Major prion protein = Major prion protein (Homo sapiens, UniProt P04156); assay type: functional, cell-based
cells [7] = test: cells; remark: listed apart in the source
Cytochrome P450 3A4 = Cytochrome P450 3A4 (Homo sapiens, UniProt P08684);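 further: CYP3A4 tested as one member of a cytochrome P450 panel screen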
[8] = target: T1, Oxysterols receptor LXR-beta; assay type: functional, cell-based; remark: listed apart in the source
[9] = Luminescence-based cell-based high throughput dose response assay to identify activators of the DAF-12 from the parasite S. stercoralis (ssDAF-12).; assay type: functional
cells [10] = test: cells; remark: listed apart in the source
[11] = target: T1, Oxysterols receptor LXR-beta; test: LXR agonists, Gal4 luciferase reporter, dose response, counter-screen for ssDAF-12 agonist project, cell-based, luminescence, HEK293, S. stercoralis campaign (AID 720737); assay type: functional; settings: read-out: IC50 (the source's name)
H4 = test: Luminescence Cell-Based Dose Response HTS to Identify Activators of 5'UTR Stem-Loop Driven Prion Protein mRNA Translation in H4 Neuroglioblastoma Cells. [Related pubchem assays: 1829 (Project Summary), 1814 (Primary HTS)]; assay type: functional; settings: Homo sapiens
[12] = Luminescence Cell-Based Dose Response HTS to Identify Activators of Luciferase Translation or Activity in H4 […] Cells. [Related pubchem assays: 1829 (Project Summary), 1814 (Primary HTS)]; assay type: functional
HT-1080 = test: cytotoxicity in HT1080 fibrosarcoma cells, cell-based, fluorescence readout (AID 620); assay type: functional; settings: Homo sapiens
[13] = Luminescence Cell-Based Dose Response HTS to Identify Inhibitors of 5'UTR Stem-Loop Driven Prion Protein mRNA Translation in H4 Neuroglioblastoma Cells. [Related pubchem assays: 1827 (Project Summary), 1813 (Primary HTS)]; assay type: functional
[14] = target: Luciferin 4-monooxygenase (Photinus pyralis, UniProt P08659); test: Counter Screen for Luciferase-based Assay Positives. [Related pubchem assays: 620, 618, 411 ]
[15] = inhibitors of SNCA 5'UTR-driven reporter translation, confirmation, H4 neuroglioma cells, luminescence (AID 1988); assay type: functional, cell-based
[16] = cytotoxicity toward DRD oncogenic fibroblasts, dose response, cell-based, non-viral oncogenic, luminescence (AID 1934); assay type: functional; settings: Homo sapiens
BJ [17] = test: cytotoxicity toward BJ-TERT fibroblasts, dose response, cell-based, RAS-independent, luminescence (AID 1933); assay type: functional; settings: Homo sapiens
BJ [18] = test: cytotoxicity toward BJ-TERT-LT-ST fibroblasts, dose response, cell-based, RAS-independent, luminescence (AID 1935); assay type: functional; settings: Homo sapiens;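 further: BJ fibroblasts immortalized with TERT plus LT and ST oncogenes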
BJ [19] = test: cells; assay type: functional, cell-based; settings: Homo sapiens
INS1 = test: beta cell apoptosis inhibitors, cytokine rescue, dose response, luminescence, retest (AID 449756); assay type: functional, cell-based; settings: Rattus norvegicus;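 further: cell death triggered by IL-1 beta plus TNF-alpha plus IFN-gamma mixture; protective hits raise ATP signal compared with cytokine alone wells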
[20] = THP-1 cell cytotoxicity, dose response, cytotoxicity control for Vif-APOBEC3G degradation inhibitor project, THP-1 cells (AID 1117359); assay type: functional; settings: Human immunodeficiency virus 1, THP-1
[21] = IGROV1 ovarian cancer cell cytotoxicity, dose response, PAX8 inhibitor project, plate reader, dry powder samples (AID 743043); assay type: functional, cell-based; settings: IGROV-1
Paired box protein Pax-8 = Paired box protein Pax-8 (Homo sapiens, UniProt Q06710); test: inhibitors of PAX8-driven TPO luciferase reporter, dose response, RMG-I cells, cherry-pick (AID 687027); assay type: functional, cell-based;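 further: luciferase reporter driven by Pax8 target thyroperoxidase promoter measured by SteadyGlo luminescence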
[22] = cytotoxicity in OVCAR8 ovarian cancer cells, dose response, PAX8 project, cell-based, plate reader, dry powder samples (AID 743197); assay type: functional; settings: OVCAR-8
[23] = NIH:OVCAR-3 ovarian cancer cell cytotoxicity, dose response, PAX8 inhibitor project, plate reader, dry powder samples (AID 743044); assay type: functional, cell-based

CC1CCc2c(sc(NC(=O)COC(=O)C3CCCO3)c2C#N)C1 (stereo unspecified)
IC50 (Prothrombin): > 50 µM (not active)

O=C(Nc1cc(C(F)(F)F)ccc1N1CCOCC1)C1Cc2ccccc2CN1C(=O)c1ccco1 (stereo unspecified)
IC50 (Estrogen receptor beta): 5.94 µM (active)

COc1ccc(CN2C(=O)c3ccccc3C2C(=O)NC2CCCCCC2)c(OC)c1 (stereo unspecified)
IC50 (Prothrombin): 10.8 µM (active)

Cc1cc(OCc2cc(C(=O)NCc3cc(C(C)C)no3)no2)cc(C)c1Cl
EC50 [1]: > 67.5 µM (inactive)

Cc1ccc(C)c(Nc2c([N+](=O)[O-])cc(C(=O)N3CC(=O)Nc4ccccc43)cc2[N+](=O)[O-])c1
EC50 [2]: > 60 µM (inconclusive)
EC50 [3]: 0.992 µM (active)
IC50 (cells [4]): 41.7 µM (active)
CC50 [5]: 28.3 µM (active)

CCN1CCN(Cc2c(O)c(Cl)cc3c(C)cc(=O)oc23)CC1
IC50 (Estrogen receptor beta): 18 µM (active)
IC50 (Aminopeptidase N): 38.3 µM (active)

CC1(C)CC2CC(C)(CN2S(=O)(=O)c2ccc(C(=O)Nc3cccc(S(=O)(=O)N4CCOCC4)c3)cc2)C1 (stereo unspecified)
IC50 (Albumin): > 94.1 µM (inactive)
EC50 (cells [6]): > 29.9 µM (inactive)
IC50 (Galanin receptor type 3): 0.805 µM (active)

Cc1ccc(C(=O)N/C(=C/c2ccc(C(C)C)cc2)C(=O)NCCCN2CCOCC2)cc1
IC50 (cells [4]): 13.2 µM (active)
CC50 [5]: > 50 µM (active)

CCc1nc(SCC(=O)NNC(=O)c2ccc(C)cc2)c2ccccc2n1
IC50 (Major prion protein): 1.36 µM (active)
IC50 (cells [7]): > 138 µM (inactive)

CCOC(=O)CSc1nnc(NC(=O)c2ccccc2)[nH]1
IC50 (Prothrombin): 0.862 µM (active)
AC50 (Cytochrome P450 3A4): 39.8 µM (inconclusive)

Cn1cc(Cl)c(C(=O)Nc2nc3ccccc3s2)n1
EC50 [8]: > 67.5 µM (inactive)
IC50 [9]: > 67.5 µM (inactive)
EC50 (cells [10]): > 67.5 µM (inactive)
EC50 [11]: > 67.5 µM (inactive)

Cn1ccnc1SCC(=O)c1c[nH]c2ccccc12
EC50 (H4): < 0.195 µM (active)
IC50 [9]: > 67.5 µM (inactive)
EC50 [12]: 0.343 µM (active)
EC50 [11]: > 67.5 µM (inactive)

C=CCn1c(C)cc(C(=O)CSc2nc3ccccc3[nH]2)c1C
EC50 (HT-1080): > 50 µM (not active)
EC50 [13]: 11.1 µM (active)
EC50 [14]: < 0.2 µM (active)
EC50 [15]: 9.31 µM (active)

Cc1ccc(C(=N)NOC(=O)c2cccs2)cc1
EC50 [1]: > 67.6 µM (inactive)

O=C(c1c(Cl)nc2sccn12)N1CCN(c2cccc(Cl)c2)CC1
EC50 [16]: 1.56 µM (active)
EC50 (BJ [17]): 3.07 µM (active)
EC50 (BJ [18]): 1.36 µM (inconclusive)
EC50 (HT-1080): 11.3 µM (active)
EC50 [14]: 0.39 µM (active)
EC50 (BJ [19]): 75.7 µM (inconclusive)

Cc1cc(N2CCOCC2)n2ncc(-c3ccccc3)c2n1
EC50 [8]: > 67.5 µM (inactive)
EC50 (cells [10]): > 67.5 µM (inactive)
EC50 (HT-1080): > 50 µM (not active)
AC50 (INS1): 7.88 µM (active)
EC50 [14]: 0.2 µM (active)

CCCCN(CCCC)S(=O)(=O)c1ccc(NC(=O)c2cccs2)cc1
EC50 [2]: > 60 µM (not active)
CC50 [20]: 27.9 µM (active)
EC50 [3]: 1.83 µM (active)

CCC1(CC)Cc2ccccc2-c2nc(S)nc(O)c21
IC50 (Major prion protein): 3.08 µM (active)
IC50 (cells [7]): > 138 µM (inactive)

C[C@@H]1CN([C@H](C)CO)C(=O)c2cc(NS(=O)(=O)c3ccccc3)ccc2O[C@@H](C)CCCCO[C@@H]1CN(C)Cc1ccc(Cl)c(Cl)c1
AC50 [21]: 27.8 µM (active)
AC50 (Paired box protein Pax-8): 4.44 µM (active)
AC50 [22]: 46.5 µM (active)

COc1ccc(S(=O)(=O)Nc2ccc3c(c2)C(=O)N([C@@H](C)CO)C[C@H](C)[C@@H](CN(C)Cc2ccc(C(F)(F)F)cc2)OCCCC[C@H](C)O3)cc1
AC50 [23]: 46.7 µM (active)
AC50 [21]: 37.9 µM (active)
AC50 (Paired box protein Pax-8): 6.83 µM (active)
AC50 [22]: > 70 µM (inactive)

COc1ccccc1S(=O)(=O)N1CC[C@H]2[C@@H](CO)N(C)c3ccc(-c4ccc(C#N)cc4)cc3[C@H]21
AC50 [23]: 37.8 µM (active)
AC50 (Paired box protein Pax-8): 38.1 µM (active)

CCOC(=O)N1CCC(/N=c2/c(-c3ccc(C)cc3)c(O)c2=O)CC1
IC50 [9]: > 67.5 µM (inactive)
EC50 [11]: > 67.5 µM (inactive)

O=C(O)c1cc(-c2cccs2)nc2ccc(Br)cc12
IC50 (Major prion protein): 1.41 µM (active)
IC50 (cells [7]): > 138 µM (inactive)
